{"source": "BindingDB's records for doi:10.7270/Q2N014XN", "about": "(Srmlsc, 2007)", "note": "Where a name gives a salt, the structure may show the parent alone."}
{"target": "T1, Diphosphomevalonate decarboxylase (Streptococcus pneumoniae serotype 2 (strain D39 / NCTC 7466), UniProt A0A0H2ZN59)", "T1 sequence (A0A0H2ZN59 whole entry)": "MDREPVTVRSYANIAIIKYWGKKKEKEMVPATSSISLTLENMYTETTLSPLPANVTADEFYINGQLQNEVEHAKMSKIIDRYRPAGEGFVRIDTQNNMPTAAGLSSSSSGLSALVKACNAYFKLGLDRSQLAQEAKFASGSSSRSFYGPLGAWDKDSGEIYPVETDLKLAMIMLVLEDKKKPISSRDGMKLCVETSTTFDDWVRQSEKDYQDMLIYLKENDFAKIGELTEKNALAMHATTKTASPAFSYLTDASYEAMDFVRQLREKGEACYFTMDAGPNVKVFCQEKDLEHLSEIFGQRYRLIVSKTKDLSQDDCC", "experiment": "diphosphomevalonate decarboxylase inhibition dose curves – biochemical, PK/LDH-coupled NADH fluorescence, hexokinase coupling counter-screen, dose response (AID 550)", "units": {"IC50": "µM"}}
{"smiles": "Cc1nc2nc(C)c(CCC(=O)N3CCOCC3)c(C)n2n1", "note": "[1-(4-morpholinyl)-3-(2,5,7-trimethyl-[1,2,4]triazolo[1,5-a]pyrimidin-6-yl)-1-propanone]", "IC50": "> 10000"}
{"smiles": "Sc1nnc(-c2ccccc2)n1C1C=CCCC1", "note": "(centres undefined) [MLS000111390]", "IC50": "> 10000"}
{"smiles": "O=P1(NC2CCCC2)COc2ccccc2OC1", "note": "[MLS000084153]", "IC50": "> 10000"}
{"smiles": "CN(C)Cc1nc2ccccc2c(=O)n1Cc1nc(-c2cc3ccccc3o2)cs1", "note": "[3-[[4-(1-benzofuran-2-yl)-1,3-thiazol-2-yl]methyl]-2-[(dimethylamino)methyl]quinazolin-4-one]", "IC50": "> 10000"}
{"smiles": "COc1ccc(C2C3=C(OC(C)=O)c4ccccc4C3=Nc3c2c(=O)n(C)c(=O)n3C)cc1", "note": "(centres undefined) [MLS000073247]", "IC50": "> 10000"}
{"smiles": "COC(=O)C1=C(C)OC(=N)C(C#N)C1c1cc(OC)c(OCC(N)=O)cc1Cl", "note": "(centres undefined) [6-Amino-4-(4-carbamoylmethoxy-2-chloro-5-methoxy-phenyl)-5-cyano-2-methyl-4H-pyran-3-carboxylic acid methyl ester]", "IC50": "> 10000"}
{"smiles": "N#Cc1c(NCCCO)nc(NCc2ccccc2)c2c1CCN(Cc1ccccc1)C2", "note": "[3-(3-hydroxypropylamino)-7-(phenylmethyl)-1-[(phenylmethyl)amino]-6,8-dihydro-5H-2,7-naphthyridine-4-carbonitrile]", "IC50": 39.1}
{"smiles": "CCC(=O)Nc1nnc(Sc2ccc(N(C)C)cc2)s1", "note": "[MLS000109846]", "IC50": "> 10000"}
{"smiles": "O=C(COc1cnc2ccccc2n1)NCCC1=CCCCC1", "note": "[MLS000056304]", "IC50": 188}
{"smiles": "CCc1nnc2sc(-c3ccc(NC(=O)CSc4ccc(Cl)cc4)cc3)nn12", "note": "[2-(4-chlorophenyl)sulfanyl-N-[4-(3-ethyl-[1,2,4]triazolo[3,4-b][1,3,4]thiadiazol-6-yl)phenyl]acetamide]", "IC50": 39.6}
{"smiles": "COc1cc2c(cc1OC)C(CC(=O)N1CCOCC1)=NC(C)(C)C2", "note": "[(2Z)-2-(6,7-dimethoxy-3,3-dimethyl-2,4-dihydroisoquinolin-1-ylidene)-1-(4-morpholinyl)ethanone;hydrochloride]", "IC50": 38.8}
{"smiles": "Cc1ccc(-n2sc3ccccc3c2=O)cc1S(=O)(=O)N1CCCCC1", "note": "[2-(4-methyl-3-piperidin-1-ylsulfonyl-phenyl)-1,2-benzothiazol-3-one]", "IC50": 3.73}
{"smiles": "CCCN1C(=O)C(NC(C)=O)c2cc(OC)ccc21", "note": "(centres undefined) [MLS000080624]", "IC50": "> 10000"}
{"smiles": "CC(C)C(OC(=O)CN1C(=O)COc2ccccc21)C(=O)NC1CCCC1", "note": "(centres undefined) [(3-Oxo-2,3-dihydro-benzo[1,4]oxazin-4-yl)-acetic acid 1-cyclopentylcarbamoyl-2-methyl-propyl ester]", "IC50": "> 10000"}
{"smiles": "O=C(CCc1nc(-c2ccccc2F)no1)NCCN1CCc2ccccc2C1", "note": "[MLS000091170]", "IC50": "> 10000"}
{"smiles": "Cc1ccccc1-c1nc2cc(N)ccc2o1", "note": "[2-(2-methylphenyl)-1,3-benzoxazol-5-amine]", "IC50": 10.1}
{"smiles": "COCCCn1c(=S)[nH]c2ccc(N3CCOCC3)cc2c1=O", "note": "[MLS000095418]", "IC50": 26.7}
{"smiles": "Cc1ccsc1C1C(C(=O)O)c2ccccc2C(=O)N1C", "note": "(centres undefined) [1-keto-2-methyl-3-(3-methyl-2-thienyl)-3,4-dihydroisoquinoline-4-carboxylic acid]", "IC50": "> 10000"}
{"smiles": "CN(C)S(=O)(=O)c1cccc(C(=O)C2=C3SC=C(c4ccccc4)N3CC2)c1", "note": "[N,N-dimethyl-3-[(3-phenyl-5,6-dihydropyrrolo[2,1-b][1,3]thiazol-7-yl)carbonyl]benzenesulfonamide]", "IC50": "> 10000"}
{"smiles": "O=C(c1ccc(F)cc1)N1CCC(N2CCCCCC2)CC1", "note": "[MLS000037563]", "IC50": "> 10000"}
{"smiles": "CC(C)(C)n1nnnc1C(c1cc2cc3c(cc2[nH]c1=O)OCO3)N1CCN(c2ccccc2)CC1", "note": "(centres undefined) [7-[(1-tert-butyl-1,2,3,4-tetrazol-5-yl)-(4-phenylpiperazin-1-yl)methyl]-5H-[1,3]dioxolo[4,5-g]quinolin-6-one]", "IC50": 57}
{"smiles": "Cc1cc(C)n2nc3nc(N4CCCCC4)nc(-c4ccco4)c3c2n1", "note": "[4-(2-furyl)-6,8-dimethyl-2-piperidin-1-ylpyrimido[4',5':3,4]pyrazolo[1,5-a]pyrimidine]", "IC50": 111}
{"smiles": "CCOC(=O)c1cc2nc(Nc3ccc(OC)cc3)sc2s1", "note": "[2-(4-methoxyanilino)-5-thieno[3,2-d]thiazolecarboxylic acid ethyl ester]", "IC50": 44.6}
{"smiles": "CCOC(=O)c1[nH]c2ccc(OC)cc2c1NC(=O)CN1CCN(c2ccccn2)CC1", "note": "[5-methoxy-3-[[1-oxo-2-[4-(2-pyridinyl)-1-piperazinyl]ethyl]amino]-1H-indole-2-carboxylic acid ethyl ester]", "IC50": "> 10000"}
{"smiles": "Cc1noc(C)c1CSc1nc2ccccc2s1", "note": "[4-(1,3-benzothiazol-2-ylsulfanylmethyl)-3,5-dimethyl-1,2-oxazole]", "IC50": "> 10000"}
{"smiles": "CCOc1cc2[nH]c(=O)n(Cc3ccc(C(=O)NCCOC)cc3)c(=O)c2cc1OCC", "note": "[MLS000120003]", "IC50": 183}
{"smiles": "CCOc1ccc(-c2nnc(-c3ccncc3)o2)cc1", "note": "[2-(4-ethoxyphenyl)-5-pyridin-4-yl-1,3,4-oxadiazole]", "IC50": 52.9}
{"smiles": "COc1ccc(N2CCN(CCNS(=O)(=O)c3cccc4nsnc34)CC2)cc1", "note": "[MLS000090468]", "IC50": "> 10000"}
{"smiles": "CCCCCn1c(SCC#N)nc2cc(C(=O)NCC3CCCO3)ccc2c1=O", "note": "(centres undefined) [2-(cyanomethylsulfanyl)-4-oxidanylidene-N-(oxolan-2-ylmethyl)-3-pentyl-quinazoline-7-carboxamide]", "IC50": "> 10000"}
{"smiles": "OCCNc1ncnc2c1c(-c1ccccc1)c(-c1ccccc1)n2Cc1ccco1", "note": "[2-[[7-(2-furanylmethyl)-5,6-diphenyl-4-pyrrolo[2,3-d]pyrimidinyl]amino]ethanol]", "IC50": "> 10000"}
{"smiles": "COc1ccc(-c2nn3c(-c4ccco4)nnc3s2)cc1OC", "note": "[6-(3,4-dimethoxyphenyl)-3-(2-furanyl)-[1,2,4]triazolo[3,4-b][1,3,4]thiadiazole]", "IC50": 235}
{"smiles": "O=C1CCC(C(=O)N(Cc2ccco2)C2(C(=O)NC3CCCC3)CCCCC2)N1", "note": "(centres undefined) [MLS000090457]", "IC50": "> 10000"}
{"smiles": "COc1ccc(-c2cc(C(=O)OCC(=O)N(C)C)c3ccccc3n2)cc1", "note": "[2-(4-methoxyphenyl)-4-quinolinecarboxylic acid [2-(dimethylamino)-2-oxoethyl] ester]", "IC50": 41.1}
{"smiles": "CCN(CC)C(=O)c1sc2[nH]c(-c3ccccn3)nc(=O)c2c1C", "IC50": 30}
{"smiles": "Cc1occc1C(=O)Nc1nnc(C(F)(F)F)s1", "note": "[2-methyl-N-[5-(trifluoromethyl)-1,3,4-thiadiazol-2-yl]-3-furamide]", "IC50": "> 10000"}
{"smiles": "Cc1cccc(OCC(O)Cn2c(-n3nc(C)cc3C)nc3c2c(=O)[nH]c(=O)n3C)c1", "note": "(centres undefined) [8-(3,5-dimethylpyrazol-1-yl)-7-[2-hydroxy-3-(3-methylphenoxy)propyl]-3-methylpurine-2,6-dione]", "IC50": "> 10000"}
{"smiles": "Cc1nc2oc3c(NCC4CCCO4)ncnc3c2c2c1COC(C)(C)C2", "note": "(centres undefined) [MLS000084527]", "IC50": 22.3}
{"smiles": "CN(C)[C@@H]1C(=O)C(C(N)=O)C(=O)[C@@]2(O)C(=O)C3C(=O)c4c(O)cccc4[C@@](C)(O)[C@H]3[C@H](O)[C@@H]12", "note": "(stereo partly drawn) [(2E,4S,4aR,5S,5aR,6S,12aS)-2-[azanyl(oxidanyl)methylidene]-4-(dimethylamino)-6-methyl-5,6,10,11,12a-pentakis(oxidanyl)-4,4a,5,5a-tetrahydrotetracene-1,3,12-trione]", "IC50": 36.8}
{"smiles": "O=c1[nH]c2cc3c(cc2cc1CN(CCCO)Cc1nnnn1Cc1ccc(F)cc1)OCO3", "note": "[7-[[[1-[(4-fluorophenyl)methyl]-1,2,3,4-tetrazol-5-yl]methyl-(3-oxidanylpropyl)amino]methyl]-5H-[1,3]dioxolo[4,5-g]quinolin-6-one]", "IC50": 54.1}
